Experimental data: US9610262B2, “Therapeutic and/or preventive agent comprising 1-indansulfamide derivative for pain” (Eisai R&D Management Co., Ltd., priority 2013, dated 2017)

Columns and labels:
[1] = system: tactile allodynia in rat chronic constriction injury (CCI) model; test: Rat chronic constriction injury (CCI) model, von Frey filament test; type: in vivo, Male SD rats; conditions: for 50% Response threshold: mean±SEM; for response threshold against mechanical stimulation: pre-administration, 10 and 50 mg/kg oral
Description: The rat chronic constriction injury (CCI) model was used to determine the efficacy on the chronic pain. In this model, tactile allodynia, a typical symptom in chronic pain patients, can be evaluated by using a response threshold against mechanical stimulation by von Frey filaments as an index (Bennett G. J. and Xie, Y. K., (Pain 1988; 33: p 87-107).
Male SD rats (Charles River Japan) aged 6 weeks (n=4, each treatment performed twice in total) were used for this experiment. The rat chronic constriction injury (CCI) model was prepared in accordance with the method of Bennett and Xie above.
The common sciatic nerve was exposed at the level of the middle of the thigh by blunt dissection through biceps femoris under isoflurane anesthesia. Four ligatures (4-0 silk) were tied loosely around the sciatic nerve at about 1 mm spacing. The biceps femoris and the skin were sutured.
On 14 days after surgery, efficacy of the compounds on tactile allodynia was evaluated. The animals were housed in wire mesh bottom cages for 30 minutes prior to the start of the experiment for acclimation. The test compound was suspended in an aqueous solution containing 0.45% methyl cellulose/4.5% Cremophor/10% dimethyl sulfoxide to prepare a suspension having a dosing volume of 10 ml/kg and the suspension was administered orally. The above mixed solvent (vehicle) alone not containing the test compound was used as a negative control. The response threshold against mechanical stimulation was measured by the application of von Frey filaments at bending forces (0.4, 0.6, 1, 2, 4, 6, 8, and 15 g) to the plantar surface of the hind paw in accordance with Chaplan et al. (J Neuroscience Methods 1994; 53(1): p. 55-63). The von Frey filaments were pushed to the paw for 6 seconds to evaluate escape response. The 50% response threshold was determined in accordance with the up-down method of Dixon (Annual Review of Pharmacology and Toxicology 1980; 20: p. 441-462). The measurement was performed before administration and at 30, 90 and 180 minutes after administration. All data are expressed as the mean±SEM. All statistical analyses were performed using Two way Repeated Measures ANOVA followed by Dunnett's test. The p-values less than 0.05 were judged as statistically significant in this experiment.

[2] = system: acute persistent pain (formalin-injected paw); test: Formalin test (second phase); type: in vivo, Male CD1 (ICR) mice; conditions: oral pre-administration; 15 to 45 minutes after injection of 2.5% formalin; FIG. 2
Experimental: The compounds were examined in the second phase of the formalin test to determine an analgesic effect on acute persistent pain. In this model, the duration of responses induced by pain (behavior such as licking or biting of the formalin-injected paw) is used as an evaluation index (Dubuisson and Dennis (Pain, 4: p. 161-174 (1977)). Male CD1 (ICR) mice (Charles River Japan) aged 5 to 6 weeks (n=6 to 16, for each treatment) were used for the experiment. The responses induced by pain were measured by an automated behavioral analysis apparatus (MicroAct (Neuroscience, Inc.)) according to detection of changes in magnetic field. Before the day prior to evaluation of pain response, a small magnet for the detection of changes in magnetic field was implanted in the left hindlimb instep under isoflurane anesthesia. For oral administration, the test compound was suspended in a solution containing 0.45% methyl cellulose/4.5% Ceremophor/10% dimethyl sulfoxide to prepare a suspension having a dosing volume of 10 ml/kg and the suspension was administered orally. The mixed solvent as above (vehicle) alone not containing the test compound was used as a negative control. Gabapentin was intraperitoneally administered as a positive control. A 2.5% formalin solution was prepared by diluting Formaldehyde Solution (Wako Pure Chemical Industries) with physiological saline (Otsuka Pharmaceutical). At 40 minutes to an hour after administration of the test compound or the positive control, 10 μl of the 2.5% formalin solution was subcutaneously injected in the left hindlimb pad. The mouse was placed in an observation chamber immediately after administration for measurement. For evaluation of an analgesic effect in the second phase, the duration of behaviors such as licking or biting of the paw was measured by the automated behavioral analysis apparatus from 15 to 45 minutes after injection of the 2.5% formalin solution. All data are expressed as the mean±SEM. All statistical analyses were performed using the Holm-Sidak's multiple comparisons test. The p-values less than 0.05 were judged as statistically significant in this experiment.

[3] = system: acute pain (mice hot plate, 53° C.); test: Mice hot-plate test; type: in vivo, Male C57BL/6NCrlCrlj mice; conditions: oral, 60 minutes before the hot-plate test; FIG. 1
Experimental: The mice hot-plate test was performed to determine the efficacy on acute pain. In this model, latency to the first pain response is recorded as a measure of pain sensitivity (Malmberg, A. and Yaksh, T., Pain. 1995, 60: 83-90).
Male C57BL/6NCrlCrlj mice (Charles River Japan) aged 6 weeks (n=4 to 10, for each treatment) were used for this experiment. The hot plate (model MK 350, Muromachi Kikai Co. Ltd) was set to 53° C. For oral administration, the test compound was suspended in an aqueous solution containing 0.45% methyl cellulose/4.5% Cremophor/10% dimethyl sulfoxide to prepare a suspension having a dosing volume of 10 ml/kg and the suspension was administered orally 60 minutes before the hot-plate test Morphine was used as a positive control and the mixed solvent (vehicle) alone not containing the test compound was used as a negative control.
Each mouse was placed on the hot plate and a stopwatch was immediately started for measurement. The latency time to the first pain response (paw lick or escape jump) was measured. The cut-off time was set to 30 seconds in order to avoid overdamage of the tissues, and the mouse was immediately removed from the hot-plate after measurement. All data are expressed as the mean±SEM. All statistical analyses were performed using Holm-Sidak's multiple comparisons test. The p-values less than 0.05 were judged as statistically significant in this experiment.

[4] = 10 mg/kg oral, 30 min after administration
[5] = 10 mg/kg oral, 90 min after administration
[6] = 10 mg/kg oral, 180 min after administration
[7] = 10 mg/kg oral, Pre (before administration), 14 days after surgery
[8] = 50 mg/kg oral, 30 min after administration
[9] = 50 mg/kg oral, 90 min after administration
[10] = 50 mg/kg oral, 180 min after administration
[11] = 50 mg/kg oral, Pre (before administration), 14 days after surgery

| Structure (SMILES) | 50% Response threshold [1, 4] | 50% Response threshold [1, 5] | 50% Response threshold [1, 6] | 50% Response threshold [1, 7] | analgesic effect on tactile allodynia in CCI model ([1]; 50 mg/kg oral) | 50% Response threshold [1, 8] | 50% Response threshold [1, 9] | 50% Response threshold [1, 10] | 50% Response threshold [1, 11] | response threshold against mechanical stimulation [1] | duration of the pain response [2] | latency time to the first pain response [3] |
| --- | --- | --- | --- | --- | --- | --- | --- | --- | --- | --- | --- | --- |
| NS(=O)(=O)NC1c2c(Cl)cc(F)cc2CC1(F)F (single isomer, unassigned; (-)) [Compound 2, (−)-N-(7-chloro-2,2,5-trifluoro-2,3-dihydro-1H-inden-1-yl)sulfamide] | 3.2 ± 0.4 g | 4.1 ± 0.5 g | 3.1 ± 0.2 g | 2.4 ± 0.2 g | statistically significant analgesic effect | 4.2 ± 0.6 g | 7.6 ± 1.1 g | 4.0 ± 0.5 g | 2.3 ± 0.2 g | increased in an approximately dose dependent manner | statistically significantly shortened | significantly increased |
| NS(=O)(=O)N[C@H]1c2c(F)cc(F)cc2CC1(F)F [Compound 1, N-[(1S)-2,2,5,7-tetrafluoro-2,3-dihydro-1H-inden-1-yl]sulfamide] | 3.2 ± 0.3 g | 4.4 ± 0.5 g | 3.1 ± 0.3 g | 2.4 ± 0.2 g | statistically significant analgesic effect | 6.0 ± 0.7 g | 11.4 ± 1.4 g | 5.3 ± 0.6 g | 2.3 ± 0.2 g | increased in an approximately dose dependent manner | statistically significantly shortened | significantly increased |
| Cc1cccc2c1[C@H](NS(N)(=O)=O)C(F)(F)C2 [Compound 3, N-[(1S)-2,2-difluoro-7-methyl-2,3-dihydro-1H-inden-1-yl]sulfamide] | 2.6 ± 0.4 g | 3.5 ± 0.7 g | 3.9 ± 0.4 g | 2.4 ± 0.2 g |  | 3.1 ± 0.4 g | 3.2 ± 0.5 g | 4.0 ± 0.4 g | 2.4 ± 0.2 g |  | statistically significantly shortened | significantly increased |
| Cc1cc(F)cc2c1[C@H](NS(N)(=O)=O)C(F)(F)C2 [Compound 4, N-[(1S)-2,2,5-Trifluoro-7-methyl-2,3-dihydro-1H-inden-1-yl]sulfamide] | 3.6 ± 0.4 g | 5.2 ± 1.5 g | 5.2 ± 1.0 g | 2.4 ± 0.2 g |  | 4.3 ± 0.9 g | 6.9 ± 1.5 g | 5.6 ± 1.6 g | 2.4 ± 0.2 g |  | statistically significantly shortened | significantly increased |
| NS(=O)(=O)NCc1csc2ccccc12 [compound 1, N-(benzo[b]thiophen-3-ylmethyl)sulfamide, reference compound] | 2.7 ± 0.4 g | 3.4 ± 0.2 g | 3.4 ± 0.3 g | 2.5 ± 0.2 g |  | 3.5 ± 0.3 g | 3.9 ± 0.3 g | 2.8 ± 0.2 g | 2.5 ± 0.2 g |  |  |  |
| NS(=O)(=O)NC[C@H]1COc2cc(Cl)ccc2O1 [compound 2, (2S)-(−)-N-(6-chloro-2,3-dihydro-benzo[1,4]dioxin-2-ylmethyl)-sulfamide, reference compound] | 2.9 ± 0.4 g | 3.2 ± 0.4 g | 3.0 ± 0.2 g | 2.6 ± 0.2 g |  | 3.5 ± 0.3 g | 4.5 ± 0.4 g | 3.6 ± 0.6 g | 2.6 ± 0.2 g |  |  |  |
